Measurements taken from patent US8410020B2, “Fungicidal composition comprising a pyridylethylbenzamide derivative and a compound capable of inhibiting the methionine biosynthesis” (Bayer Cropscience AG, priority 2004, dated 2013).

What was measured:
Type in all cases: in vivo
[1] = system: Erysiphe graminis f. sp. hordei; experiment: Efficacy against Erysiphe graminis f. sp. hordei on barley plants (preventive spray, 24 h before contamination); conditions: dose 500 g/ha, grading 7 to 14 days after contamination
Protocol: (§1) The active ingredients tested are prepared by potter homogenisation in a mixture of acetone/tween/water. This suspension is then diluted with water to obtain the desired active material concentration.
Barley plants (Express variety) in starter cups, sown on 50/50 peat soil-pozzolana substrate and grown at 12° C., are treated at the 1-leaf stage (10 cm tall) by spraying with the aqueous suspension described above.
(§2) Plants, used as controls, are treated with an aqueous solution not containing the active material.
After 24 hours, the plants are contaminated by dusting them with Erysiphe graminis f. sp. hordei spores, the dusting being carried out using diseased plants.
(§3) Grading is carried out 7 to 14 days after the contamination, in comparison with the control plants.

[2] = system: Erysiphe graminis f. sp. tritici; experiment: Efficacy against Erysiphe graminis on wheat plants (preventive spray, 24 h before contamination); conditions: grading 7 to 14 days after contamination
Protocol: as §1
Wheat plants (Audace variety) in starter cups, sown on 50/50 peat soil-pozzolana substrate and grown at 12° C., are treated at the 1-leaf stage (10 cm tall) by spraying with the aqueous suspension described above.
as §2
After 24 hours, the plants are contaminated by dusting them with Erysiphe graminis f. sp. tritici spores, the dusting being carried out using diseased plants.
as §3

Botrytis cinerea = experiment: Efficacy against Botrytis cinerea on gherkin plants (preventive spray, 24 h before contamination); conditions: grading 5 to 7 days after contamination
Protocol: The formulated (concentrated suspension) compounds are diluted with water to obtain the desired active material concentration Gherkin plants (Petit vert de Paris variety) in starter cups, sown on a 50/50 peat soil-pozzolana substrate and grown at 18-20° C., are treated at the cotyledon Z11 stage by spraying with the aqueous suspension described above. Plants, used as controls, are treated with an aqueous solution not containing the active material.
After 24 hours, the plants are contaminated by depositing drops of an aqueous suspension of Botrytis cinerea spores (150,000 spores per ml) on upper surface of the leaves. The spores are collected from a 15-day-old culture and are suspended in a nutrient solution composed of: • 20 g/L of gelatine • 50 g/L of cane sugar • 2 g/L of NH4NO3 • 1 g/L of KH2PO4
The contaminated gherkin plants are settled for 5/7 days in a climatic room at 15-11° C. (day/night) and at 80% relative humidity. Grading (% of efficacy) is carried out 5 to 7 days after the contamination, in comparison with the control plants.

CC#Cc1cc(C)nc(Nc2ccccc2)n1 [Mepanipyrim, mepanipyrim]
% Efficacy [1]: 0%

Cc1cc(C2CC2)nc(Nc2ccccc2)n1 [Cyprodinil, cyprodinil]
% Efficacy ([2]; dose 31.2 g/ha): 0%

Cc1cc(C)nc(Nc2ccccc2)n1 [Pyrimethanil, pyrimethanil]
% Efficacy (Botrytis cinerea; dose 12.3 ppm): 90%

O=C(NCCc1ncc(C(F)(F)F)cc1Cl)c1ccccc1C(F)(F)F [Compound 1, N-{2-[3-chloro-5-(trifluoromethyl)-2-pyridinyl]ethyl}-2-trifluoromethylbenzamide]
% Efficacy ([2]; dose 500 g/ha): 35% | % Efficacy [1]: 40% | % Efficacy (Botrytis cinerea; dose 37 ppm): 45%
